Patent US20020176882A1, “Additive the improvement and/or stabilization of the keeping quality of microbially perishable products” (priority 1997, published 2002)

What was measured:
Enterococci = assay: quantitative suspension assay, Enterococci; type: cell-based; details: control 10^8/ml
From the text: (§1) Bacteriological assay methods for additives quantitative suspension assay II (suspension test)
(§2) Microorganisms: aerobic microorganisms (total germ count), Enterobacteriaceae, Enterococci, Lactobacilli, yeasts, molds. These methods are capable of determining the effects of the additives as a function of dosage and duration of action using different microorganisms on different nutrient media.
(§3) Quantitative suspension assay II—suspension test a) Inoculate test germ suspension with the desired test germ, e.g., 10^6/ml, expose for 1-60 min. Place desired formulation to be tested into desiganted germ suspension tubes (different percentages). Await end of exposure times and pour or inoculate into the appropriate agar plates, depending on the germ. […]
(§4) b) Treat the test germ suspension with the desired formulation to be tested (see a) prior to inoculating the test germs (see a). Await end of exposure times and then inoculate with the respective test germs, and inoculate or pour into the appropriate agar plates depending on the test germ.

yeasts = assay: quantitative suspension assay, yeasts; type: cell-based; details: control 10^5/ml
From the text: as §1, §2, §3, §4

Lactobacilli = assay: quantitative suspension assay, Lactobacilli; type: cell-based; details: control 10^5/ml
From the text: as §1, §2, §3, §4

[1] = system: aerobic microorganisms (total germ count); assay: quantitative suspension assay, total germ count; type: cell-based; details: control 10^8/ml
From the text: as §1, §2, §3, §4

Enterobacteria = assay: quantitative suspension assay, Enterobacteria; type: cell-based, Enterobacteriaceae; details: control 10^8/ml
From the text: as §1, §2, §3, §4

molds = assay: quantitative suspension assay, molds; type: cell-based; details: control 10^5/ml
From the text: as §1, §2, §3, §4
Note: test concentration or dose not given here.

Compound | Enterococci germ count (Enterococci; 5 min exp. time) | Enterococci germ count (Enterococci; 15 min exp. time) | Enterococci germ count (Enterococci; 60 min exp. time) | yeasts germ count (yeasts; 5 min exp. time) | yeasts germ count (yeasts; 15 min exp. time) | yeasts germ count (yeasts; 60 min exp. time) | Lactobacilli germ count (Lactobacilli; 5 min exp. time) | Lactobacilli germ count (Lactobacilli; 15 min exp. time) | Lactobacilli germ count (Lactobacilli; 60 min exp. time) | total germ count ([1]; 5 min exp. time) | total germ count ([1]; 15 min exp. time) | total germ count ([1]; 60 min exp. time) | Enterobacteria germ count (Enterobacteria; 5 min exp. time) | Enterobacteria germ count (Enterobacteria; 15 min exp. time) | Enterobacteria germ count (Enterobacteria; 60 min exp. time) | molds germ count (molds; 5 min exp. time) | molds germ count (molds; 15 min exp. time) | molds germ count (molds; 60 min exp. time)
CC(O)CO (stereo not drawn) [Propylene glycol] | 10^8 /ml | 10^8 /ml | 10^8 /ml | 10^5 /ml | 10^5 /ml | 10^5 /ml | 10^5 /ml | 10^5 /ml | 10^5 /ml | 10^9 /ml | 10^9 /ml | 10^9 /ml | 10^8 /ml | 10^8 /ml | 10^8 /ml | 10^5 /ml | 10^5 /ml | 10^5 /ml
OCC(O)CO [Glycerol] | 10^8 /ml | 10^8 /ml | 10^8 /ml | 10^5 /ml | 10^5 /ml | 10^5 /ml | 10^5 /ml | 10^5 /ml | 10^5 /ml | 10^6 /ml | 10^8 /ml | 10^8 /ml | 10^7 /ml | 10^7 /ml | 10^7 /ml | 10^5 /ml | 10^5 /ml | 10^5 /ml
OCc1ccccc1 [Benzyl alcohol] | 10^8 /ml | 10^7 /ml | 10^7 /ml | 10^5 /ml | 10^4 /ml | 10^4 /ml | 10^5 /ml | 10^5 /ml | 10^5 /ml | 10^8 /ml | 10^7 /ml | 10^7 /ml | 10^7 /ml | 10^7 /ml | 10^7 /ml | 10^5 /ml | 10^4 /ml | 10^4 /ml
tannin [Formulation 1a] | 10^7 /ml | 10^6 /ml | 10^6 /ml | 10^4 /ml | 10^4 /ml | 10^4 /ml | 10^5 /ml | 10^4 /ml | 10^4 /ml | 10^6 /ml | 10^6 /ml | 10^6 /ml | 10^6 /ml | 10^6 /ml | 10^6 /ml | 10^4 /ml | 10^4 /ml | 10^4 /ml
CC(O)C(=O)O (stereo not drawn) [Lactic acid] | 10^7 /ml | 10^7 /ml | 10^7 /ml | 10^5 /ml | 10^5 /ml | 10^5 /ml | 10^5 /ml | 10^4 /ml | 10^4 /ml | 10^7 /ml | 10^7 /ml | 10^7 /ml | 10^6 /ml | 10^6 /ml | 10^6 /ml | 10^5 /ml | 10^5 /ml | 10^5 /ml
